Results on 16 compounds are retold here after patent publication US20230295200A1 (REGENTS OF THE UNIVERSITY OF MICHIGAN, priority 2022, published 2023).

The target of this assay is T1, STAT6 protein (Homo sapiens, UniProt P42226).
T1 sequence (P42226 1-847): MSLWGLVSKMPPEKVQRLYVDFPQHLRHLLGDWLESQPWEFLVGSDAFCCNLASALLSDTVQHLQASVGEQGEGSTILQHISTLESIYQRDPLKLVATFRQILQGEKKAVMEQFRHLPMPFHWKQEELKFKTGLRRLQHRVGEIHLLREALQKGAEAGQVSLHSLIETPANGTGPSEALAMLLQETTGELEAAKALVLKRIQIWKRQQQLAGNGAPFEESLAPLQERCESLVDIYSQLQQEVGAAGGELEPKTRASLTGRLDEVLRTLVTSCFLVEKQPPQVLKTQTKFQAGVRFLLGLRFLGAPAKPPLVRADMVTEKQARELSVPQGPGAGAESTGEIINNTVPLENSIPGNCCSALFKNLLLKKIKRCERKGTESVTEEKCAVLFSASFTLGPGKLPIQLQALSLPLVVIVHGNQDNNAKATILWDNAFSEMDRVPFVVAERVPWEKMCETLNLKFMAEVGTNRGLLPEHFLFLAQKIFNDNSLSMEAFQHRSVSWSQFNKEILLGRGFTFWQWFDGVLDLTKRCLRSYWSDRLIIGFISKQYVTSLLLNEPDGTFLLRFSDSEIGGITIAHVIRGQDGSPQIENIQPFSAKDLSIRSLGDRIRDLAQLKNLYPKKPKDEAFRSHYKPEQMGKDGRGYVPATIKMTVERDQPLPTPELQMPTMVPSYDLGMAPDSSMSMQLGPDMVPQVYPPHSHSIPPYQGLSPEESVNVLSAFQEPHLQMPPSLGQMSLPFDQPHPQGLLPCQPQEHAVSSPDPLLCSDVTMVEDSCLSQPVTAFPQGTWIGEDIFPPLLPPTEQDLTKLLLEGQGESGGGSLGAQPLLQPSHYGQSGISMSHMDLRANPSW
As to the kind of experiment: Fluorescence polarization (FP) binding assay, STAT6. The settings on record: FP competition, 5 nM fluorescein-labeled tracer, 200 nM protein, PBS pH7.4; read-out: Binding STAT6. The protocol: Evaluation of the activity of the inhibitors may be accomplished by fluorescence polarization (FP) experiments. A representative general protocol is the following:
Fluorescence polarization (FP) experiments are performed in black round-bottom plates using the CLARIOstar microplate reader. To each well, fluorescein-labeled tracer and STAT5 or STAT6 protein are added in assay buffer. […] The inhibition constants are determined as the concentration of the STAT5 or STAT6 at which 50% of the ligand is bound.
Fluorescence polarization (FP) experiments were performed in 96-well, black round-bottom plates (Microfluor 2, Fisher Scientific) using the CLARIOstar microplate reader (BMG Labtech). To each well, 5 nM of fluoresceinlabeled tracer and 200 nM of STAT5 and/or STAT6 protein were added to a final volume of 100 μl in the assay buffer (PBS pH7.4+0.01% BGG+0.01% Tween-20, 2 mM DTT). The plate was mixed on a shaker for 15 m and incubated at room temperature for 1 h to reach equilibrium. […] All experimental data were analyzed using Prism 8.0 software (GraphPad Software), and the inhibition constants were determined by nonlinear curve fitting as the concentration of the STAT5 and/or STAT6 at which 50% of the ligand is bound.
(In general: In fluorescence polarisation assays a small probe gives low polarisation when free and higher when bound to something large.)
Consider `CC(C)(C)[C@H](NC(=O)c1cc2cc(C(F)(F)P(=O)(O)O)ccc2s1)C(=O)N1Cc2ccccc2C[C@H]1C(=O)N1CCOC(Cc2ccccc2)C1` (stereo partly drawn) [Compound 221, ((2-(((2S)-1-((3S)-3-(2-benzylmorpholine-4-carbonyl)-3,4-dihydroisoquinolin-2(1H)-yl)-3,3-dimethyl-1-oxobutan-2-yl)carbamoyl)benzo[b]thiophen-5-yl)difluoromethyl)phosphonic acid], for which the Ki lay within 100 to 1000 nM.
For the compound `CC(C)(C)[C@H](NC(=O)c1cc2cc(C(F)(F)P(=O)(O)O)ccc2s1)C(=O)N1Cc2ccccc2C[C@H]1C(=O)N1CCOC(C2CCCCC2)C1` (stereo partly drawn) [Compound 222, ((2-(((2S)-1-((3S)-3-(2-cyclohexylmorpholine-4-carbonyl)-3,4-dihydroisoquinolin-2(1H)-yl)-3,3-dimethyl-1-oxobutan-2-yl)carbamoyl)benzo[b]thiophen-5-yl)difluoromethyl)phosphonic acid], the Ki lay within 100 to 1000 nM.
To `CC(C)(C)[C@H](NC(=O)c1cc2cc(C(F)(F)P(=O)(O)O)ccc2s1)C(=O)N1Cc2ccccc2C[C@H]1C(=O)N1CCSC(c2ccccc2)C1` (stereo partly drawn) [Compound 223, ((2-(((2S)-3,3-dimethyl-1-oxo-1-((3S)-3-(2-phenylthiomorpholine-4-carbonyl)-3,4-dihydroisoquinolin-2(1H)-yl)butan-2-yl)carbamoyl)benzo[b]thiophen-5-yl)difluoromethyl)phosphonic acid] belongs less than 100 nM; to `CC(C)(C)[C@H](NC(=O)c1cc2cc(C(F)(F)P(=O)(O)O)ccc2s1)C(=O)N1Cc2ccccc2C[C@H]1C(=O)N1CCS(=O)(=O)[C@H](c2ccccc2)C1` [Compound 224, ((2-(((S)-1-((S)-3-((R)-1,1-dioxido-2-phenylthiomorpholine-4-carbonyl)-3,4-dihydroisoquinolin-2(1H)-yl)-3,3-dimethyl-1-oxobutan-2-yl)carbamoyl)benzo[b]thiophen-5-yl)difluoromethyl)phosphonic acid], less than 100 nM.
Turning to `CC(C)(C)[C@H](NC(=O)c1cc2cc(C(F)(F)P(=O)(O)O)ccc2s1)C(=O)N1Cc2ccccc2C[C@H]1C(=O)N1CCS(=O)(=O)[C@@H](c2ccccc2)C1` [Compound 225, ((2-(((S)-1-((S)-3-((S)-1,1-dioxido-2-phenylthiomorpholine-4-carbonyl)-3,4-dihydroisoquinolin-2(1H)-yl)-3,3-dimethyl-1-oxobutan-2-yl)carbamoyl)benzo[b]thiophen-5-yl)difluoromethyl)phosphonic acid], the Ki lay in the range of 100 to 1000 nM.
To `CC1CN(C(=O)[C@@H]2Cc3ccccc3CN2C(=O)[C@@H](NC(=O)c2cc3cc(C(F)(F)P(=O)(O)O)ccc3s2)C(C)(C)C)CC(c2ccccc2)O1` (stereo partly drawn) [Compound 226, ((2-(((2S)-3,3-dimethyl-1-((3S)-3-(2-methyl-6-phenylmorpholine-4-carbonyl)-3,4-dihydroisoquinolin-2(1H)-yl)-1-oxobutan-2-yl)carbamoyl)benzo[b]thiophen-5-yl)difluoromethyl)phosphonic acid] belongs 100 to 1000 nM; to `CC(C)(C)[C@H](NC(=O)c1cc2cc(C(F)(F)P(=O)(O)O)ccc2s1)C(=O)N1Cc2ccccc2C[C@H]1C(=O)N1CCOC(c2cccc3ccccc23)C1` (stereo partly drawn) [Compound 227, ((2-(((2S)-3,3-dimethyl-1-((3S)-3-(2-(naphthalen-1-yl)morpholine-4-carbonyl)-3,4-dihydroisoquinolin-2(1H)-yl)-1-oxobutan-2-yl)carbamoyl)benzo[b]thiophen-5-yl)difluoromethyl)phosphonic acid], 100 to 1000 nM; to `Cc1ccccc1C1CN(C(=O)[C@@H]2Cc3ccccc3CN2C(=O)[C@@H](NC(=O)c2cc3cc(C(F)(F)P(=O)(O)O)ccc3s2)C(C)(C)C)CCO1` (stereo partly drawn) [Compound 228, ((2-(((2S)-3,3-dimethyl-1-oxo-1-((3S)-3-(2-(o-tolyl)morpholine-4-carbonyl)-3,4-dihydroisoquinolin-2(1H)-yl)butan-2-yl)carbamoyl)benzo[b]thiophen-5-yl)difluoromethyl)phosphonic acid], 100 to 1000 nM.
As for `Cc1ccc(C2CN(C(=O)[C@@H]3Cc4ccccc4CN3C(=O)[C@@H](NC(=O)c3cc4cc(C(F)(F)P(=O)(O)O)ccc4s3)C(C)(C)C)CCO2)c(C)c1` (stereo partly drawn) [Compound 229, ((2-(((2S)-1-((3S)-3-(2-(2,4-dimethylphenyl)morpholine-4-carbonyl)-3,4-dihydroisoquinolin-2(1H)-yl)-3,3-dimethyl-1-oxobutan-2-yl)carbamoyl)benzo[b]thiophen-5-yl)difluoromethyl)phosphonic acid], the Ki lay in the range of 1000 to 10000 nM.
The figure for `CC(C)(C)[C@H](NC(=O)c1cc2cc(C(F)(F)P(=O)(O)O)ccc2s1)C(=O)N1Cc2ccccc2C[C@H]1C(=O)N1CCOC(c2ccccc2F)C1` (stereo partly drawn) [Compound 230, (difluoro(2-(((2S)-1-((3S)-3-(2-(2-fluorophenyl)morpholine-4-carbonyl)-3,4-dihydroisoquinolin-2(1H)-yl)-3,3-dimethyl-1-oxobutan-2-yl)carbamoyl)benzo[b]thiophen-5-yl)methyl)phosphonic acid] is 100 to 1000 nM; for `CC(C)(C)[C@H](NC(=O)c1cc2cc(C(F)(F)P(=O)(O)O)ccc2s1)C(=O)N1Cc2ccccc2C[C@H]1C(=O)N1CCOC(c2ccc(F)cc2)C1` (stereo partly drawn) [Compound 231, (difluoro(2-(((2S)-1-((3S)-3-(2-(4-fluorophenyl)morpholine-4-carbonyl)-3,4-dihydroisoquinolin-2(1H)-yl)-3,3-dimethyl-1-oxobutan-2-yl)carbamoyl)benzo[b]thiophen-5-yl)methyl)phosphonic acid] it is 100 to 1000 nM.
To `CC(C)(C)[C@H](NC(=O)c1cc2cc(C(F)(F)P(=O)(O)O)ccc2s1)C(=O)N1Cc2ccccc2C[C@H]1C(=O)N1CCOC(c2ccccc2Cl)C1` (stereo partly drawn) [Compound 232, ((2-(((2S)-1-((3S)-3-(2-(2-chlorophenyl)morpholine-4-carbonyl)-3,4-dihydroisoquinolin-2(1H)-yl)-3,3-dimethyl-1-oxobutan-2-yl)carbamoyl)benzo[b]thiophen-5-yl)difluoromethyl)phosphonic acid] belongs 100 to 1000 nM; to `CC(C)(C)[C@H](NC(=O)c1cc2cc(C(F)(F)P(=O)(O)O)ccc2s1)C(=O)N1Cc2ccccc2C[C@H]1C(=O)N1CCOC(c2cccc(Cl)c2)C1` (stereo partly drawn) [Compound 233, ((2-(((2S)-1-((3S)-3-(2-(3-chlorophenyl)morpholine-4-carbonyl)-3,4-dihydroisoquinolin-2(1H)-yl)-3,3-dimethyl-1-oxobutan-2-yl)carbamoyl)benzo[b]thiophen-5-yl)difluoromethyl)phosphonic acid], less than 100 nM.
Consider `CC(C)(C)[C@H](NC(=O)c1cc2cc(C(F)(F)P(=O)(O)O)ccc2s1)C(=O)N1Cc2ccccc2C[C@H]1C(=O)N1CCOC(c2ccc(Cl)cc2)C1` (stereo partly drawn) [Compound 234, ((2-(((2S)-1-((3S)-3-(2-(4-chlorophenyl)morpholine-4-carbonyl)-3,4-dihydroisoquinolin-2(1H)-yl)-3,3-dimethyl-1-oxobutan-2-yl)carbamoyl)benzo[b]thiophen-5-yl)difluoromethyl)phosphonic acid], for which the Ki was 100 to 1000 nM.
The figure for `CC1(c2ccc(Cl)cc2)CN(C(=O)[C@@H]2Cc3ccccc3CN2C(=O)[C@@H](NC(=O)c2cc3cc(C(F)(F)P(=O)(O)O)ccc3s2)C(C)(C)C)CCO1` (stereo partly drawn) [Compound 235, ((2-(((2S)-1-((3S)-3-(2-(4-chlorophenyl)-2-methylmorpholine-4-carbonyl)-3,4-dihydroisoquinolin-2(1H)-yl)-3,3-dimethyl-1-oxobutan-2-yl)carbamoyl)benzo[b]thiophen-5-yl)difluoromethyl)phosphonic acid] is 1000 to 10000 nM; for `CC1(c2ccc(F)cc2)CN(C(=O)[C@@H]2Cc3ccccc3CN2C(=O)[C@@H](NC(=O)c2cc3cc(C(F)(F)P(=O)(O)O)ccc3s2)C(C)(C)C)CCO1` (stereo partly drawn) [Compound 236, (difluoro(2-(((2S)-1-((3S)-3-(2-(4-fluorophenyl)-2-methylmorpholine-4-carbonyl)-3,4-dihydroisoquinolin-2(1H)-yl)-3,3-dimethyl-1-oxobutan-2-yl)carbamoyl)benzo[b]thiophen-5-yl)methyl)phosphonic acid] it is 1000 to 10000 nM.
